What all share (assay type): cell-based, human
In one assay the test system is KG1a cells. Kind of assay: RT-PCR of stem/progenitor and maturation markers in KG1a cells. The following applies: 7 days of treatment. As for the experimental part: Total RNA was extracted from cultured human cells using the Rneasy mini kit (Quiagen) and following the manufacturer's instructions. 3 μg of RNA was used in subsequent reverse transcription reactions. The RNA was mixed with a poly T15 oligo to 5 microgrammes/ml and heated to 75° C. for 5 minutes. After cooling on ice, the following additional reagents were added; dNTPs to 0.4 mM, RNase OUT (Promega) to 1.6 U/μl, Moloney Murine Leukemia Virus Reverse Transcriptase (M-MLRvT) RnaseH— point mutant (Promega) to 8 U/μl and the appropriate buffer (supplied by the manufacturer) to x1 concentration. The mixture was incubated for one hour at 37° C., heated to 70° C. for two minutes and cooled on ice.
PCR reactions were all performed in a total volume of 40 μl. For each we used 1 μl of the M-MLRvT reaction (as described above), 0.2 nmols of each primer and 20 microliters of Redimix pre-mixed PCR components (Sigma). All reactions were cycled at 94° C. for 30 seconds, 55° C. for 30 seconds and 72° C. for 60 seconds. 30 cycles were used for all primer sets except those for beta-actin, for which 23 cycles were used.

Another assay deals with CD133+ cells. Nature of the assay: RT-PCR of HOX-PBX target genes in CD133+ cells. As to the method: (§1) Total RNA was isolated from liquid nitrogen snap-frozen cells using RNeasy Mini Kit protocol (Qiagen, Crawley, UK). 50 μl reverse transcription reactions using 1 μg of RNA per reaction heated at 75° C. cDNA with 1 μg of oligo-dT for 10 mins. Samples were cooled on ice and mixed with 200 units of M-MLV reverse transcriptase (Promega, Southampton, UK) in its associated buffer, 400 μM of dNTPs (Promega), and 40 units of RNAseout (Invitrogen, Paisley, UK). Samples were then incubated at 37° C. for one hour and finally heated at 75° C. for 5 mins. PCR reactions (35 cycles, 94° C. 30 sec, 55° C. 30 sec, 72° C. 1 min) were carried out in a 20 μl reaction using JumpStart ReadyMix REDTaq DNA polymerase (Sigma-Aldrich) using an identical amount of cDNA per reaction with 1 μM of forward and reverse primers.

The test system of assay [1] is KG1a, HL60 and U937 cells. Kind of assay: Cell cycle of leukaemic cell lines synchronised in G0-G1 with L-mimosine. The following applies: HL60 and U937 synchronised in G0-G1, over 48 hours, vs control peptide. As to the method:
The proportion of KG1a, HL60 and U937 cells in G0-G1 phase of the cell cycle upon HXP peptide treatment was compared to CXP4. Cells were synchronised in G0-G1 phase of the cell cycle by exposure to 0.5 mM L-mimosine. Results are expressed as the mean percentage of four experiments (+/−SE).
KG1a, HL60 and U937 cell cycle profiles were analysed over 48 hours in culture with HXP peptide or the control peptide (FIG. 10). The effect of HXP peptide on non-synchronised cells varied considerably (data not shown).

Assay [2] deals with KG1a, HL60 and U937 leukaemic cell lines. Nature of the assay: RT-PCR of HOX/PBX target genes in leukaemic cell lines (Example 3). As to the method:
as §1

The subject of the next assay is malignant cell lines. Kind of assay: Proliferation of malignant cell lines over seven days in culture. On the set-up: effect of increased dose on proliferation of malignant cell lines: dose or concentration left out as unconfirmed. As to the method: A number of cell lines representing different malignancies were grown in culture for seven days, and HXP peptide or the control peptide CXP were added to a final concentration of 20 μg/ml on day 3. The bars represent the fold increase of each cell line over the seven days; the empty, dashed bars indicate the CXP peptide treated cells, whilst the solid bars indicate the addition of HXP peptide. Error bars represent the standard error the mean, and n is the number of experiments performed. The cell lines used were: AML—KG1a; Bladder—HT; Breast—SKBR3; Cervical—HeLa; Colon—Colo41; Gastric—MKN-45; Large cell lung cancer—MES; Melanoma—DX3; Ovarian—1847; Pancreatic—Panc-Tu1; Prostate—LNCAP; Renal—HT1376; Small cell lung cancer—NCI-h510A. The change in the expression of the HOX genes expressed by each cell line was assessed by RT-PCR on RNA extracted from the cells at the end of seven days. ‘HOX gene inactivated’ means that the level of expression of each of the listed HOX genes was at least five fold lower in the HXP peptide treated cells compared to the control. *Analysis not yet complete.
A number of cell lines representing different malignancies were grown in culture for seven days, and HXP peptide or the control peptide CXP were added to a final concentration of 200 μg/ml on day 3. The bars represent the fold increase of each cell line over the seven days; the empty, dashed bars indicate the CXP peptide treated cells, whilst the solid bars indicate the addition of HXP peptide. Error bars represent the standard error the mean, and n is the number of experiments performed. The cell lines used were: Bladder—HT; Cervical—HeLa; Melenoma—DX3; Pancreatic—Panc-Tu1.
Solid tumour cell lines (Cancer Research UK) were seeded at 4×10^4 cells/ml, in a liquid culture system made of appropriate medium (see table, Sigma-Aldrich, UK) supplemented with 10% FCS (Sigma Aldrich) and penstrep (1% Sigma). All cell lines were grown with HXP peptide (as in Example 3, 20 μg/ml or 200 μg/ml) or control peptide CXP (20 μg/ml or 200 μg/ml).
KG1a, KG1, HL60 and U937 cell lines (EACC, UK) were seeded at 5×10^4 cells/ml, in a liquid culture system made of RPMI-1640 medium (Life Technologies, UK) supplemented with 10% FCS (Sigma Aldrich) and gentamicin (50 μg/ml Life Technologies) in triplicates. All cell lines were grown with HXP peptide peptide (20 μg/ml) or control peptide (20 μg/ml).
Cell lines were cultured for various time points at 37° C., 5% CO2 in humidified atmosphere and enumerated at various time points.

[3] abbreviates: 20 μg/ml added on day 3, seven days culture.

Results on one substance are retold here after patent publication US7728105B2, “Peptides impairing PBX dependent gene regulation” (St. George's Hospital Medical School, priority 2002, dated 2010).

“WYPWMKKHHRQIKIWFQNRRMKWKK [HXP peptide]”: in the assay with KG1a cells, the “markers of maturation/differentiation (CD38)” value is on record as “elevated”; the “markers of stem/progenitor cells (AC133, CD34, HOXB4, HOXB8 and HOXA9)” value is listed as “diminished”. Further, in the assay with CD133+ cells (18 days), the CD38 gene expression result is on record as “up-regulated”; the “expression of HOX-PBX target genes (CDC25, CDK2, N-Ras, Ras-like GTP binding protein, MMP19, MMP1, MAPK, RAB27A, Bak2, p53, CTCF, EIF4E, CD133, CD34, TERT, HOX B4, B8 and A9)” value is “significantly down regulated”. For the same substance, the “expression of HOX-PBX target genes after withdrawing HXP peptide” value in the assay on CD133+ cells (withdrawal at day 7) is recorded as “up-regulation of all of these genes with the exception of MAPK”. Further, the “proportion of cells leaving phase G0-G1 and entering the cell cycle” value in assay [1] was “induces a significantly higher proportion of cells to leave the phase G0-G1 and enter the cell cycle”. The MMP19 expression result in assay [2] (KG1a) is “down-regulated”. The MMP1 expression result in assay [2] (KG1a and U937 cells) was “down-regulated”. Besides, in assay [2] (KG1a cell line), the CD38 gene expression entry is recorded as “up-regulation”; the “CD133, CD34, HOXB4, B8 and A9 gene expression” value was “down-regulation”. Further, the “expression of the other genes examined” value in assay [2] (KG1a, HL60, U937, except CDC25, MMP1, MMP19 as stated) is recorded as “did not alter”. Also, in assay [2] (U937 and HL60 cell lines), the CD38 gene expression entry is given as “up-regulated”; the “HOXB4 and A9 gene expression” value is reported as “down-regulation”; the HOXB8 gene expression entry is given as “unchanged”. Moreover, in assay [2] (U937 cells), the CDC25 expression result is “down-regulated”. Moreover, in assay [2] (all of the cell lines (KG1a, HL60, U937)), the N-RAS oncogene expression result is “completely down-regulated”. For the same substance, the “fold increase in cell number after 7 days in culture, in some cases” value in the assay on malignant cell lines (20 μg/ml) was “less than 1”. In the assay with malignant cell lines (setting [3]), the “proliferation of cells derived from colorectal, pancreatic, small cell lung, bladder, prostate, cervical, ovarian and gastric cancers” value is listed as “sufficient to block the proliferation”; the “proliferation of cells derived from renal, breast and non-small cell lung cancer” value was “no significant affect”. In the assay on malignant cell lines (ten fold increase in dose), the “effect of increased dose on proliferation of malignant cell lines” value is “complete ablation of some malignancies”.
